From US20080175794A1, “Substituted Pyridazinyl- and Pyrimidinyl-Quinolin-4-Ylamine Analogues” (NEUROGEN CORPORATION, priority 2005, published 2008) come the findings set out here.

A word on the IC50: it is the concentration needed to halve the response being measured.

For the test, the target named is T1, human capsaicin receptor (Homo sapiens, UniProt Q8NER1).
T1 construct: expressed in transfected cells
Put plainly: Calcium mobilization assay, determination of antagonist activity (Example 6). Conditions: assay provided in Example 6, cells expressing human capsaicin receptor, capsaicin at EC50. The class given is cell-based. As to the method:
A cDNA encoding full length human capsaicin receptor (SEQ ID NO:1, 2 or 3 of U.S. Pat. No. 6,482,611) is subcloned in the plasmid pBK-CMV (Stratagene, La Jolla, Calif.) for recombinant expression in mammalian cells.
Human embryonic kidney (HEK293) cells are transfected with the pBK-CMV expression construct encoding the full length human capsaicin receptor using standard methods. The transfected cells are selected over two weeks in media containing G418 (400 μg/ml) to obtain a pool of stably transfected cells. Independent clones are isolated from this pool by limiting dilution to obtain clonal stable cell lines for use in subsequent experiments.
Cells transfected with expression plasmids (as described in Example 4) and thereby expressing human capsaicin receptor are seeded and grown to 70-90% confluency in FALCON black-walled, clear-bottomed 96-well plates (#3904, BECTON-DICKINSON, Franklin Lakes, N.J.). The culture medium is emptied from the 96 well plates and FLUO-3 AM calcium sensitive dye (Molecular Probes, Eugene, Oreg.) is added to each well (dye solution: 1 mg FLUO-3 AM, 440 μL DMSO and 440 μl 20% pluronic acid in DMSO, diluted 1:250 in Krebs-Ringer HEPES (KRH) buffer (25 mM HEPES, […], 0.96 mM NaH2PO4, 1 mM MgSO4, 2 mM CaCl2, 5 mM glucose, 1 mM probenecid, pH 7.4), 50 μl diluted solution per well). Plates are covered with aluminum foil and incubated at 37° C. for 1-2 hours in an environment containing 5% CO2. After the incubation, the dye is emptied from the plates, and the cells are washed once with KRH buffer, and resuspended in KRH buffer.
To measure the ability of a test compound to agonize or antagonize a calcium mobilization response in cells expressing capsaicin receptors to capsaicin or other vanilloid agonist, the EC50 of the agonist capsaicin is first determined. An additional 20 μl of KRH buffer and 1 μl DMSO is added to each well of cells, prepared as described above. 100 μl capsaicin in KRH buffer is automatically transferred by the FLIPR instrument to each well. Capsaicin-induced calcium mobilization is monitored using either FLUOROSKAN ASCENT (Labsystems; Franklin, Mass.) or FLIPR (fluorometric imaging plate reader system; Molecular Devices, Sunnyvale, Calif.) instruments. Data obtained between 30 and 60 seconds after agonist application are used to generate an 8-point concentration response curve, with final capsaicin concentrations of 1 nM to 3 μM. KALEIDAGRAPH software (Synergy Software, Reading, Pa.) is used to fit the data to the equation: […]
Test compounds are dissolved in DMSO, diluted in 20 μl KRH buffer so that the final concentration of test compounds in the assay well is between […] and 5 μM, and added to cells prepared as described above. The 96 well plates containing prepared cells and test compounds are incubated in the dark at room temperature for 0.5 to 6 hours. It is important that the incubation not continue beyond 6 hours. Just prior to determining the fluorescence response, 100 μl capsaicin in KRH buffer at twice the EC50 concentration determined as described above is automatically added by the FLIPR instrument to each well of the 96 well plate for a final sample volume of 200 μl and a final capsaicin concentration equal to the EC50. The final concentration of test compounds in the assay wells is between 1 μM and 5 μM. […] The concentration of antagonist required to provide a 50% decrease, relative to the response observed in the presence of capsaicin and without antagonist, is the IC50 for the antagonist, and is preferably below 1 micromolar, 100 nanomolar, 10 nanomolar or 1 nanomolar.
A general note: A change in cytosolic calcium serves as a functional read-out for many receptors and channels.

T1 sequence (Q8NER1 whole entry): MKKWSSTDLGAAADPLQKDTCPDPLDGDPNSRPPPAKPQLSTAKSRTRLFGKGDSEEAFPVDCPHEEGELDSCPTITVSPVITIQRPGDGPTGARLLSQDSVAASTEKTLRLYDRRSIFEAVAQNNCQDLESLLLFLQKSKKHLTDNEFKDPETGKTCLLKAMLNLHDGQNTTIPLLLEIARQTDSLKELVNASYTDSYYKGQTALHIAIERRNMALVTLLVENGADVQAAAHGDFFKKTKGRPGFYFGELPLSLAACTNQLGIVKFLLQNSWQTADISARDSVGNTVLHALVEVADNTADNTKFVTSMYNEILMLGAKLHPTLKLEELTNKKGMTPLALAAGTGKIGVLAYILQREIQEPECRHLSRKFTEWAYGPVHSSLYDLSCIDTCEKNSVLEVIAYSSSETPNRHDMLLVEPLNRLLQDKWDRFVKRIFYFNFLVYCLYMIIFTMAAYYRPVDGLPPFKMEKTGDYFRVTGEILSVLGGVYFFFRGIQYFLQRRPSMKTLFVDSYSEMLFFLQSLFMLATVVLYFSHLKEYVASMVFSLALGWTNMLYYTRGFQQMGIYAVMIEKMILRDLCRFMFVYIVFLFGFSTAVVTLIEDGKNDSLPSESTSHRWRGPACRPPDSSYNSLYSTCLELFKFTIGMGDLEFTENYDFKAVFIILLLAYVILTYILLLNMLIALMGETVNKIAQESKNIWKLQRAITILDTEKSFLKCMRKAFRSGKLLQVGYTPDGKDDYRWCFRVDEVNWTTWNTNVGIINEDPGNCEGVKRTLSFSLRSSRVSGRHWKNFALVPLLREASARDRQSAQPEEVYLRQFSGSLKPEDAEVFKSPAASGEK

With `FC(F)(F)c1ccc(Nc2ccnc3nc(-c4nnc(N5CCCC5)cc4C(F)(F)F)cnc23)nc1` [Compound 120, 3-[6-pyrrolidin-1-yl-4-(trifluoromethyl)pyridazin-3-yl]-N-[5-(trifluoromethyl)pyridin-2-yl]pyrido[2,3-b]pyrazin-8-amine], the half-inhibitory concentration (IC50) (Table III) was < 1000 nM.

`CC(C)CCNc1cc(C(F)(F)F)c(-c2cnc3c(Nc4ccc(C(F)(F)F)cn4)ccnc3n2)nn1` [Compound 106, 3-{6-[(3-methylbutyl)amino]-4-(trifluoromethyl)pyridazin-3-yl}-N-[5-(trifluoromethyl)pyridin-2-yl]pyrido[2,3-b]pyrazin-8-amine]: the IC50 (Table III) was < 1000 nM.

Take `CCN1CCCC1CNc1cc(C(F)(F)F)c(-c2cnc3c(Nc4ccc(C(F)(F)F)cn4)ccnc3n2)nn1` (stereo not shown) [Compound 76, 3-[6-{[(1-ethylpyrrolidin-2-yl)methyl]amino}-4-(trifluoromethyl)pyridazin-3-yl]-N-[5-(trifluoromethyl)pyridin-2-yl]pyrido[2,3-b]pyrazin-8-amine]: the IC50 (Table III) was < 1000 nM.

As for `CN(C)CCOc1cc(C(F)(F)F)c(-c2cnc3c(Nc4ccc(C(F)(F)F)cn4)ccnc3n2)nn1` [Compound 62, 3-{6-[2-(dimethylamino)ethoxy]-4-(trifluoromethyl)pyridazin-3-yl}-N-[5-(trifluoromethyl)pyridin-2-yl]pyrido[2,3-b]pyrazin-8-amine], the IC50 (Table III) is < 1000 nM.

With `CCN1CCN(c2cc(C(F)(F)F)c(-c3cnc4c(Nc5ccc(C(F)(F)F)cn5)ccnc4n3)nn2)CC1` [Compound 88, 3-[6-(4-ethylpiperazin-1-yl)-4-(trifluoromethyl)pyridazin-3-yl]-N-[5-(trifluoromethyl)pyridin-2-yl]pyrido[2,3-b]pyrazin-8-amine], under “Table III”, the IC50 is < 1000 nM.

As to `CN1CCC(N(C)c2cc(C(F)(F)F)c(-c3cnc4c(Nc5ccc(C(F)(F)F)cn5)ccnc4n3)nn2)C1` (stereo not shown) [Compound 97, 3-{6-[methyl(1-methylpyrrolidin-3-yl)amino]-4-(trifluoromethyl)pyridazin-3-yl}-N-[5-(trifluoromethyl)pyridin-2-yl]pyrido[2,3-b]pyrazin-8-amine], where the note is “Table III”, the 50% inhibitory concentration (IC50) is < 1000 nM.

As to `CCNc1cc(C(F)(F)F)c(-c2cnc3c(Nc4ccc(C(F)(F)F)cn4)ccnc3n2)nn1` [Compound 101, 3-[6-(ethylamino)-4-(trifluoromethyl)pyridazin-3-yl]-N-[5-(trifluoromethyl)pyridin-2-yl]pyrido[2,3-b]pyrazin-8-amine], the IC50 (Table III) was < 1000 nM.

As for `OCCCNc1cc(C(F)(F)F)c(-c2cnc3c(Nc4ccc(C(F)(F)F)cn4)ccnc3n2)nn1` [Compound 169, 3-{[5-(trifluoromethyl)-6-(8-{[5-(trifluoromethyl)pyridin-2-yl]amino}pyrido[2,3-b]pyrazin-3-yl)pyridazin-3-yl]amino}propan-1-ol], for the setting “Table III”, the IC50 was < 1000 nM.

Take `CC1CCN(c2cc(C(F)(F)F)c(-c3cnc4c(Nc5ccc(C(F)(F)F)cn5)ccnc4n3)nn2)CC1` [Compound 177, 3-[6-(4-methylpiperidin-1-yl)-4-(trifluoromethyl)pyridazin-3-yl]-N-[5-(trifluoromethyl)pyridin-2-yl]pyrido[2,3-b]pyrazin-8-amine]: the IC50 (Table III) was < 1000 nM.

Take `CC(O)CCNc1cc(C(F)(F)F)c(-c2cnc3c(Nc4ccc(C(F)(F)F)cn4)ccnc3n2)nn1` (stereo not shown) [Compound 174, 4-{[5-(trifluoromethyl)-6-(8-{[5-(trifluoromethyl)pyridin-2-yl]amino}pyrido[2,3-b]pyrazin-3-yl)pyridazin-3-yl]amino}butan-2-ol]: the IC50 (Table III) was < 1000 nM.

Regarding `CCC(O)CNc1cc(C(F)(F)F)c(-c2cnc3c(Nc4ccc(C(F)(F)F)cn4)ccnc3n2)nn1` (stereo not shown) [Compound 173, 1-{[5-(trifluoromethyl)-6-(8{[5-(trifluoromethyl)pyridin-2-yl]amino}pyrido[2,3-b]pyrazin-3-yl)pyridazin-3-yl]amino}butan-2-ol], the IC50 (Table III) was < 1000 nM.

As to `FC(F)(F)c1ccc(Nc2ccnc3nc(-c4nnc(NCc5cccnc5)cc4C(F)(F)F)cnc23)nc1` [Compound 78, 3-{6-[(pyridin-3-ylmethyl)amino]-4-(trifluoromethyl)pyridazin-3-yl}-N-[5-(trifluoromethyl)pyridin-2-yl]pyrido[2,3-b]pyrazin-8-amine], the IC50 (Table III) is < 1000 nM.

As to `FC(F)(F)c1cnc(Nc2ccnc3nc(-c4nnccc4C(F)(F)F)cnc23)cn1` [Compound 46, N-[5-(trifluoromethyl)-2-pyrazinyl]-3-[4-(trifluoromethyl)-3-pyridazinyl]pyrido[2,3-b]pyrazin-8-amine], the IC50 (Table III) is < 1000 nM.

In the case of `CCCCNc1cc(C(F)(F)F)c(-c2cnc3c(Nc4ccc(C(F)(F)F)cn4)ccnc3n2)nn1` [Compound 104, 3-[6-(butylamino)-4-(trifluoromethyl)pyridazin-3-yl]-N-[5-(trifluoromethyl)pyridin-2-yl]pyrido[2,3-b]pyrazin-8-amine], the IC50 (Table III) was < 1000 nM.

As to `CC1CCCN1c1cc(C(F)(F)F)c(-c2cnc3c(Nc4ccc(C(F)(F)F)cn4)ccnc3n2)nn1` (stereo not shown) [Compound 129, 3-[6-(2-methylpyrrolidin-1-yl)-4-(trifluoromethyl)pyridazin-3-yl]-N-[5-(trifluoromethyl)pyridin-2-yl]pyrido[2,3-b]pyrazin-8-amine], the IC50 (Table III) was < 1000 nM.

Turning to `CN(C)C(=O)CNc1cc(C(F)(F)F)c(-c2cnc3c(Nc4ccc(C(F)(F)F)cn4)ccnc3n2)nn1` [Compound 167, N,N-dimethyl-N2-[5-(trifluoromethyl)-6-(8-{[5-(trifluoromethyl)pyridin-2-yl]amino}pyrido[2,3-b]pyrazin-3-yl)pyridazin-3-yl]glycinamide], the IC50 (Table III) is < 1000 nM.

`FC(F)(F)c1ccc(Nc2ccnc3nc(-c4nnc(NCc5ccccn5)cc4C(F)(F)F)cnc23)nc1` [Compound 80, 3-{6-[(pyridin-2-ylmethyl)amino]-4-(trifluoromethyl)pyridazin-3-yl}-N-[5-(trifluoromethyl)pyridin-2-yl]pyrido[2,3-b]pyrazin-8-amine]: the IC50 (Table III) is < 1000 nM.

With `CCCCCNc1cc(C(F)(F)F)c(-c2cnc3c(Nc4ccc(C(F)(F)F)cn4)ccnc3n2)nn1` [Compound 153, 3-[6-(pentylamino)-4-(trifluoromethyl)pyridazin-3-yl]-N-[5-(trifluoromethyl)pyridin-2-yl]pyrido[2,3-b]pyrazin-8-amine], for the setting “Table III”, the IC50 is < 1000 nM.

For `CN1CCCC1CCOc1cc(C(F)(F)F)c(-c2cnc3c(Nc4ccc(C(F)(F)F)cn4)ccnc3n2)nn1` (stereo not shown) [Compound 65, 3-{6-[2-(1-methylpyrrolidin-2-yl)ethoxy]-4-(trifluoromethyl)pyridazin-3-yl}-N-[5-(trifluoromethyl)pyridin-2-yl]pyrido[2,3-b]pyrazin-8-amine], the IC50 (Table III) is < 1000 nM.

`FC(F)(F)c1ccc(Nc2ccnc3nc(-c4nnccc4C(F)(F)F)ccc23)nc1` [Compound 1, N-[5-(Trifluoromethyl)pyridin-2-yl]-7-[4-(trifluoromethyl)pyridazin-3-yl]-1,8-naphthyridin-4-amine]: the IC50 was < 1000 nM.

Regarding `CCN(CC)CCCNc1cc(C(F)(F)F)c(-c2cnc3c(Nc4ccc(C(F)(F)F)cn4)ccnc3n2)nn1` [Compound 73, N,N-diethyl-N′-[5-(trifluoromethyl)-6-(8-{[5-(trifluoromethyl)pyridin-2-yl]amino}pyrido[2,3-b]pyrazin-3-yl)pyridazin-3-yl]propane-1,3-diamine], the IC50 (Table III) is < 1000 nM.

Turning to `CCC(CO)Nc1cc(C(F)(F)F)c(-c2cnc3c(Nc4ccc(C(F)(F)F)cn4)ccnc3n2)nn1` (stereo not shown) [Compound 118, 2-{[5-(trifluoromethyl)-6-(8-{[5-(trifluoromethyl)pyridin-2-yl]amino}pyrido[2,3-b]pyrazin-3-yl)pyridazin-3-yl]amino}butan-1-ol], the half-inhibitory concentration (IC50) (Table III) was < 1000 nM.
